Among the data in DBAASP are MIC values, retold here.

≈ marks a conversion by molar mass, not a printed value. Where “and” joins values, the source holds several entries; their conditions need not be identical. Equal values may be shown once.

What all share (assay): ≥ marks a high value that may be exact or a test limit, other limits are often not marked, values filed in µg/mL are converted to µM
The subject of test [1] is Escherichia coli AB94012.
For test [2], the system named is Escherichia coli ATCC 25922.
Test [3] has as its system Pseudomonas aeruginosa AB93066.
Test [4] concerns Pseudomonas aeruginosa ATCC 9027.
Test [5] relates to Staphylococcus aureus AB94004.
Test [6] has as its system Staphylococcus aureus ATCC 25923.
Test [7] concerns Staphylococcus aureus ATCC 6538.
Test [8] relates to Staphylococcus aureus P1374.
For test [9], the system named is Staphylococcus aureus P1381.
The test system of test [10] is Fusarium graminearum PH-1.
Test [11] concerns Bacillus megaterium CIP 6620.
Test [12] concerns Corynebacterium stationis CIP 101282.
Test [13] concerns Escherichia coli SBS 363.
Test [14] concerns Microbacterium maritypicum CIP 105733T.
Test [15] has as its system Micrococcus luteus CIP 5345.
The test system of test [16] is Staphylococcus aureus CIP 103428.
The subject of test [17] is Staphylococcus aureus SG511.
For test [18], the system named is Staphylococcus haemolyticus.
The test system of test [19] is Vibrio nigripulchritudo CIP 103195.
The subject of test [20] is Vibrio splendidus CIP 107715.
Test [21] concerns Bacillus subtilis 168.
The test system of test [22] is Candida albicans F7-39/IDE99.
Test [23] deals with Escherichia coli B.
For test [24], the system named is Micrococcus luteus CCM 144.
Test [25] relates to Pseudomonas aeruginosa.
For test [26], the system named is Staphylococcus aureus.
Test [27] deals with Burkholderia cepacia.
The subject of test [28] is Delftia acidovorans.
In test [29] the test system is Elizabethkingia meningoseptica.
In test [30] the test system is Pseudomonas aeruginosa 6206.
Test [31] has as its system Pseudomonas aeruginosa 6294.
The subject of test [32] is Pseudomonas aeruginosa ATCC 19660.
The subject of test [33] is Pseudomonas aeruginosa PAER1.
Test [34] has as its system Staphylococcus aureus 31.
Test [35] has as its system Staphylococcus aureus 38.
Test [36] concerns Stenotrophomonas maltophilia.
Test [37] concerns Candida albicans ATCC 10231.
In test [38] the test system is Cryptococcus neoformans ATCC 32264.
The subject of test [39] is Escherichia coli.
Test [40] concerns Pseudomonas aeruginosa ATCC 27853.
The test system of test [41] is Salmonella enterica subsp. enterica serovar Enteritidis.
Test [42] relates to Salmonella sp.
Test [43] has as its system Staphylococcus aureus ATCC 29213.
Test [44] relates to Staphylococcus aureus ATCC 33591.
For test [45], the system named is Staphylococcus aureus ATCC 43300.
The test system of test [46] is Yersinia enterocolitica.
Test [47] deals with Candida tropicalis CCARM 14019.

Broadly, the MIC is the smallest concentration in the dilution series that meets the test's criterion for growth inhibition. A low value points to a more susceptible organism. Take `CC[C@H](C)[C@H](NC(=O)CN)C(=O)N[C@@H](CC(C)C)C(=O)NCC(=O)N[C@@H](CCCCN)C(=O)N[C@@H](CC(C)C)C(=O)N[C@@H](Cc1c[nH]c2ccccc12)C(=O)N[C@@H](CCCCN)C(=O)NCC(=O)N[C@H](C(=O)N[C@@H](CCCCN)C(=O)N[C@@H](CO)C(=O)N[C@H](C(=O)N[C@@H](Cc1ccccc1)C(N)=O)[C@@H](C)CC)C(C)C` [GILGKLWKGVKSIF]: the MIC in test [1] is 16.2 µM (≈ 25 µg/mL); in test [2] it was 64.7 µM (≈ 99.9 µg/mL); in test [3], ≥ 32.3 µM; in test [4] it was 16.2 µM (≈ 25 µg/mL); in test [5], 4.04 µM (≈ 6.25 µg/mL); in test [6], 8.09 µM (≈ 12.5 µg/mL). Besides, the MIC in test [7], in test [8] and in test [9] was 4.04 µM (≈ 6.25 µg/mL) in each case.

Consider `NC(N)=NCCC[C@H](NC(=O)[C@H](Cc1ccccc1)NC(=O)[C@H](CC(=O)O)NC(=O)[C@H](CC(=O)O)NC(=O)[C@@H](N)CCCN=C(N)N)C(=O)O` [RDDFR], for which, in [10], the MIC was ≥ 96 µM.

As for `CC[C@H](C)[C@H](NC(=O)[C@@H]1CCCN1C(=O)CN)C(=O)N[C@@H](CCCN=C(N)N)C(=O)N[C@@H](CCCN=C(N)N)C(=O)N1CCC[C@H]1C(=O)N[C@@H](CCC(=O)O)C(=O)N1CCC[C@H]1C(=O)N[C@@H](CCCN=C(N)N)C(=O)N1CCC[C@H]1C(=O)N[C@@H](CCCN=C(N)N)C(=O)N1CCC[C@H]1C(=O)N[C@@H](CCC(=O)O)C(=O)O` [GPIRRPEPRPRPE], the MIC was 20 µM (≈ 31.1 µg/mL) in test [11]; 20 µM (≈ 31.1 µg/mL) in test [12]; ≥ 80 µM in test [13]; 20 µM (≈ 31.1 µg/mL) in [14]; ≥ 80 µM in test [15]; 20 µM (≈ 31.1 µg/mL) in test [16]. Further, the minimal inhibitory concentration (MIC) in [17] was 20 µM (≈ 31.1 µg/mL); in test [18] it was 20 µM (≈ 31.1 µg/mL); in test [19] it was ≥ 40 µM; in [20], ≥ 40 µM.

With `CC[C@H](C)[C@H](NC(=O)[C@H](CC(C)C)NC(=O)[C@H](CCCCN)NC(=O)[C@@H](NC(=O)[C@@H](NC(=O)[C@H](Cc1cnc[nH]1)NC(=O)[C@@H]1CCCN1C(=O)[C@H](CC(C)C)NC(=O)[C@@H](NC(=O)[C@H](CCCCN)NC(=O)[C@H](C)NC(=O)[C@H](CC(C)C)NC(=O)[C@H](CCCCN)NC(=O)[C@H](CO)NC(=O)[C@H](C)NC(=O)[C@H](CCSC)NC(=O)CN)C(C)C)C(C)C)C(C)C)C(=O)N[C@@H](CCCCN)C(=O)O` [GMASKLAKVLPHVVKLIK], the MIC was 3.1 µM (≈ 5.99 µg/mL) in test [21]; ≥ 56.3 µM in test [22]; 2.9 µM (≈ 5.6 µg/mL) in test [23]; 1.4 µM (≈ 2.71 µg/mL) in test [24]; 100 µM (≈ 193 µg/mL) in test [25]; 35 µM (≈ 67.6 µg/mL) in test [26].

On to `NCCCC[C@H](NC(=O)[C@H](CCCN=C(N)N)NC(=O)[C@H](CCCCN)NC(=O)[C@H](CC(N)=O)NC(=O)[C@@H](N)CCCCN)C(=O)N[C@@H](CCCN=C(N)N)C(=O)N[C@@H](CCCN=C(N)N)C(=O)N[C@@H](CCCN=C(N)N)C(=O)N[C@@H](CCCN=C(N)N)C(=O)N[C@@H](CCCN=C(N)N)C(=O)N[C@@H](CCCN=C(N)N)C(=O)NCC(=O)NCC(=O)N[C@@H](CCCN=C(N)N)C(=O)N[C@@H](CCCN=C(N)N)C(=O)N[C@@H](CCCN=C(N)N)C(=O)N[C@@H](CCCN=C(N)N)C(=O)O` [KNKRKRRRRRRGGRRRR], for which the MIC was ≥ 426 µM in [27]; ≥ 426 µM in [28]; ≥ 213 µM in test [29]; 26.6 µM (≈ 62.5 µg/mL) in [30]; ≥ 106 µM in test [31]; 26.6 µM (≈ 62.5 µg/mL) in test [32]. The MIC in [33] was ≥ 106 µM; in [34], ≥ 106 µM; in [35] it was ≥ 106 µM; in test [7] it was 53.2 µM (≈ 125 µg/mL); in test [36] it was 13.3 µM (≈ 31.2 µg/mL).

On to `CC[C@H](C)[C@H](NC(=O)[C@H](CCCCN)NC(=O)[C@@H](NC(=O)[C@H](CCC(N)=O)NC(=O)[C@@H](N)CCCCN)[C@@H](C)CC)C(=O)N[C@@H](Cc1c[nH]c2ccccc12)C(=O)N[C@@H](Cc1ccccc1)C(=O)N[C@@H](CCC(N)=O)C(=O)N[C@@H](CC(N)=O)C(=O)N[C@@H](CCCCN)C(=O)N[C@@H](CCCCN)C(=O)N[C@@H](CCSC)C(=O)N[C@@H](CCCCN)C(=O)N[C@@H](Cc1c[nH]c2ccccc12)C(=O)N[C@@H](CCCCN)C(=O)N[C@@H](CCCCN)C(N)=O` [KQIKIWFQNKKMKWKK], for which the MIC was 50 µM (≈ 108 µg/mL) in test [37]; ≥ 50 µM in test [38]; 64 µM and 50 µM in test [2]; 17.7 µM (≈ 38.2 µg/mL) in [39]; > 50 µM in [40]; 25 µM (≈ 54 µg/mL) in test [41]. Moreover, the MIC in [42] was ≥ 50 µM; in test [43] it was > 50 µM; in test [44], ≥ 256 µM; in test [45], > 50 µM; in test [46], ≥ 50 µM.

As for `CC(C)C[C@H](NC(=O)CNC(=O)[C@H](Cc1cnc[nH]1)NC(=O)[C@H](Cc1cnc[nH]1)NC(=O)[C@H](CCCN=C(N)N)NC(=O)[C@H](CCCCN)NC(=O)[C@H](C)N)C(=O)N[C@@H](CC(N)=O)C(=O)N[C@@H](CS)C(=O)N[C@@H](C)C(=O)N[C@@H](CCCCN)C(=O)N[C@@H](Cc1ccccc1)C(=O)N[C@@H](Cc1cnc[nH]1)C(N)=O` [AKRHHGLNCAKFH], the MIC in [47] was 0.466 µM and 0.931 µM.
